Results: PMC6273433, “Design, Synthesis and Cytotoxicity of Novel Dihydroartemisinin-Coumarin Hybrids via Click Chemistry” (Molecules, 2016)
Read-outs that look alike come from different tables or passages of the source.

What was measured:
[1] = test system: HCT-116 (human colorectal cancer cell line); experiment: MTT cytotoxicity assay, HCT-116 under anoxia or normoxia; type: cell-based; details: for HCT-116 Value = IC50(normoxia)/IC50(anoxia): HCT-116, activity promotion under anoxia, >100 set as 100; for IC50: Homo sapiens
Experimental: (§1) We focused our attention on the cytotoxicity of the four series of newly-synthesized compounds (10a–e, 11a–e, 12a–e, and 13a–e) under normoxic or anoxic conditions.
(§2) The data was calculated by the Logit method and presented as IC50 values in Table 1.
(§3) All of the newly-synthesized compounds were screened for in vitro cytotoxicity by MTT assay. The exponentially-growing MRC-5, HCT-116, MDA-MB-231, and HT-29 cells were allowed to grow until 80% confluency, the culture medium was discarded, digested with trypsin, separated centrifugally, then fresh culture medium was added and blown gently into single-cell suspension. Then, the cell suspension was seeded into each well of 96-well microculture plates at a concentration of 1.5 × 10^3–3 × 10^3 cells/well.
(§4) The cells were incubated with 50 μL of 2 mg/mL MTT solution for 4 h in a humidified incubator. The supernatant was discarded, and the media were then replaced with 200 μL of dimethyl sulfoxide to dissolve the purple colored formazan crystals formed in the wells, and their absorbances were measured at 492 nm with a microplate reader (Synergy-HT, BioTek Instruments, Winooski, VT, USA); 200 μL DMSO was set as the blank control.
(§5) The anoxia condition was achieved by placing cells in a sealed hypoxia incubator chamber (Catalog Number 27310, Stemcell Technologies, Inc., Vancouver, BC, Canada) filled with 5% CO2 and 95% N2.

[2] = test system: MDA-MB-231 (human breast carcinoma cell line, CA IX negative); experiment: MTT cytotoxicity assay, MDA-MB-231 under anoxia or normoxia; type: cell-based; details: for IC50: Homo sapiens; for MDA-MB-231 Value = IC50(normoxia)/IC50(anoxia): MDA-MB-231, activity promotion under anoxia, >100 set as 100
Experimental: as §1, §2, §3, §4, §5

[3] = test system: HT-29 (human colon carcinoma cell line, overexpresses high amounts of CA IX); experiment: MTT cytotoxicity assay, HT-29 under anoxia or normoxia; type: cell-based; details: for HT-29 Value = IC50(normoxia)/IC50(anoxia): HT-29, activity promotion under anoxia; for IC50: Homo sapiens
Experimental: as §1, §2, §3, §4, §5

[4] = test system: MRC-5 (human fetal lung fibroblast cells, normal lung cell); experiment: MTT cytotoxicity assay, MRC-5 normal cells; type: cell-based; details: MRC5, MRC-5, normoxia, 96 h MTT
Experimental: as §1, §2, §3, §4

[5] = MTT cytotoxicity assay, summary statements over all cell lines; type: cell-based; details: human, MRC-5, HCT-116, MDA-MB-231 and HT-29 cells; 96 h MTT assay, four cell lines, normoxic or anoxic
Experimental: as §1, §2, §3, §4, §5

[6] = HCT-116, anoxia 24 h then normoxia 72 h, MTT, read-out: IC50 HCT-116 Anoxia
[7] = HCT-116, normoxia, 96 h MTT, read-out: IC50 HCT-116 Normoxia
[8] = MDA-MB-231, anoxia 24 h then normoxia 72 h, MTT, read-out: IC50 MDA-MB-231 Anoxia
[9] = MDA-MB-231, normoxia, 96 h MTT, read-out: IC50 MDA-MB-231 Normoxia
[10] = HT-29, anoxia 24 h then normoxia 72 h, MTT, read-out: IC50 HT-29 Anoxia
[11] = HT-29, normoxia, 96 h MTT, read-out: IC50 HT-29 Normoxia

Row | Compound | melting point | HCT-116 Value = IC50(normoxia)/IC50(anoxia) [1] | IC50 [1, 6] | IC50 [1, 7] | IC50 [2, 8] | IC50 [2, 9] | HT-29 Value = IC50(normoxia)/IC50(anoxia) [3] | IC50 [3, 10] | IC50 [3, 11] | IC50 [4] | MDA-MB-231 Value = IC50(normoxia)/IC50(anoxia) [2] | IC50 at 96 h [5]
1 | Cc1c(C)c2ccc(OCc3cn(CCO[C@H]4O[C@@H]5O[C@@]6(C)CC[C@H]7[C@H](C)CC[C@@H]([C@H]4C)[C@@]57OO6)nn3)cc2oc1=O [12c, 7-(1-(2-(10β-Dihydroartemisininoxy)ethyl)-1H-1,2,3-triazol-4-yl)methoxy-3,4-dimethyl-2H-chromen-2-one] | 84 to 86 °C | 1.33 | 12.1 µM | 16 µM | 33.2 µM | > 100 µM | 6.04 | 2.87 µM | 17.3 µM | 33.8 µM | – | –
2 | C[C@H]1[C@@H](OCCn2cc(COc3ccc4c(C(F)(F)F)cc(=O)oc4c3)nn2)O[C@@H]2O[C@@]3(C)CC[C@H]4[C@H](C)CC[C@@H]1[C@@]24OO3 [12b, 7-(1-(2-(10β-Dihydroartemisininoxy)ethyl)-1H-1,2,3-triazol-4-yl)methoxy-4-trifluoromethyl-2H-chromen-2-one] | 77 to 79 °C | 0.35 | 24.4 µM | 8.47 µM | 14.7 µM | 40.1 µM | 4.62 | 2.46 µM | 11.3 µM | 18.5 µM | 2.73 | –
3 | Cc1cc(=O)oc2cc(OCc3cn(CCCO[C@H]4O[C@@H]5O[C@@]6(C)CC[C@H]7[C@H](C)CC[C@@H]([C@H]4C)[C@@]57OO6)nn3)ccc12 [13a, 7-(1-(3-(10β-Dihydroartemisininoxy)propyl)-1H-1,2,3-triazol-4-yl)methoxy-4-methyl-2H-chromen-2-one] | 75 to 77 °C | 2.95 | 9.65 µM | 28.5 µM | 36.1 µM | > 100 µM | 4.30 | 6.4 µM | 27.5 µM | 26.2 µM | 2.77 | –
4 | Cc1c(Cl)c(=O)oc2cc(OCc3cn(CCO[C@H]4O[C@@H]5O[C@@]6(C)CC[C@H]7[C@H](C)CC[C@@H]([C@H]4C)[C@@]57OO6)nn3)ccc12 [12d, 3-Chloro-7-(1-(2-(10β-dihydroartemisininoxy)ethyl)-1H-1,2,3-triazol-4-yl)methoxy-4-methyl-2H-chromen-2-one] | 76 to 78 °C | 2.71 | 5.86 µM | 15.9 µM | 43.5 µM | > 100 µM | 6.16 | 3.63 µM | 22.4 µM | 62.3 µM | 2.30 | –
5 | CC(=O)Nc1nnc(S(N)(=O)=O)s1 [AAZ, acetazolamide] | – | – | – | – | – | – | – | – | – | – | – | > 100 µM
6 | C[C@H]1[C@@H](OCCCn2cc(COc3ccc4c(C(F)(F)F)cc(=O)oc4c3)nn2)O[C@@H]2O[C@@]3(C)CC[C@H]4[C@H](C)CC[C@@H]1[C@@]24OO3 [13b, 7-(1-(3-(10β-Dihydroartemisininoxy)propyl)-1H-1,2,3-triazol-4-yl)methoxy-4-trifluoromethyl-2H-chromen-2-one] | 69 to 71 °C | 7.43 | 2.75 µM | 20.4 µM | 26.6 µM | > 100 µM | 3.74 | 5.31 µM | 19.8 µM | 21.4 µM | 3.76 | –
7 | Cc1c(C)c2ccc(OCc3cn(CCCO[C@H]4O[C@@H]5O[C@@]6(C)CC[C@H]7[C@H](C)CC[C@@H]([C@H]4C)[C@@]57OO6)nn3)cc2oc1=O [13c, 7-(1-(3-(10β-Dihydroartemisininoxy)propyl)-1H-1,2,3-triazol-4-yl)methoxy-3,4-dimethyl-2H-chromen-2-one] | 68 to 70 °C | 8.95 | 2.13 µM | 19.1 µM | 4.17 µM | 59.6 µM | 4.23 | 2.8 µM | 11.9 µM | 27.8 µM | 14.29 | –
8 | Cc1cc(=O)oc2cc(OCc3cn(CCO[C@H]4O[C@@H]5O[C@@]6(C)CC[C@H]7[C@H](C)CC[C@@H]([C@H]4C)[C@@]57OO6)nn3)ccc12 [12a, 7-(1-(2-(10β-Dihydroartemisininoxy)ethyl)-1H-1,2,3-triazol-4-yl)methoxy-4-methyl-2H-chromen-2-one] | 79 to 81 °C | 1.50 | 18.3 µM | 27.4 µM | 47.7 µM | 125 µM | 3.11 | 10.6 µM | 33 µM | 37.4 µM | 2.63 | –
9 | Cc1c(Cl)c(=O)oc2cc(OCc3cn(CCCO[C@H]4O[C@@H]5O[C@@]6(C)CC[C@H]7[C@H](C)CC[C@@H]([C@H]4C)[C@@]57OO6)nn3)ccc12 [13d, 3-Chloro-7-(1-(3-(10β-Dihydroartemisininoxy)propyl)-1H-1,2,3-triazol-4-yl)methoxy-4-methyl-2H-chromen-2-one] | 71 to 73 °C | 41.38 | 0.43 µM | 18 µM | 3.62 µM | 72.5 µM | 1.87 | 4.68 µM | 8.76 µM | 31.5 µM | 20.03 | –
